{"source": "patent US20050096456A1", "about": "“Compounds comprising pseudo-amino acids” (priority 2002, published 2005)", "assay": "Solubility of the lyophilised peptide", "type": "physicochemical", "experimental": "The crude peptide was desalted via gel filtration (Sephadex G10, 0.1% TFA in water) before purification by preparative C18 Vydac) high performance liquid chromatography (HPLC) using 0.1% trifluoroacetic acid and 0.1% trifluoroacetic acid/90% acetonitrile as gradient components. After lyophilisation, the peptide was a white amorphous powder, soluble to at least 10 mg/mL in both dimethylsulfoxide and water. Fast atom bombardment spectrometry gave a main peak at 2101 amu corresponding to the molecular ion of the peptide.", "note": "Where two headings read alike, the source gives them in different places. Residues, ends and D or L forms follow the SMILES beside them. *: point of attachment. Myristoyl = CCCCCCCCCCCCCC(=O)*"}
{"molecule": "CCCCCCCCCCCCCC(=O)NCC(=O)N[C@@H](CO)C(=O)N[C@@H](CO)C(=O)N[C@@H](CCCCN)C(=O)N[C@@H](CO)C(=O)N1CCC[C@H]1C(=O)N[C@@H](CO)C(=O)N[C@@H](CCCCN)C(=O)N[C@@H](CCCCN)C(=O)N[C@@H](CC(=O)O)C(=O)N[C@@H](CC(=O)O)C(=O)N[C@@H](CCCCN)C(=O)N[C@@H](CCCCN)C(=O)N1CCC[C@H]1C(=O)NCC(=O)N[C@@H](CC(=O)O)C(=O)N[C@@H](CCCCNC(=O)[C@@H](N)CS)C(N)=O", "note": "[MSWP2278, Myristoyl-Gly-Ser-Ser-Lys-Ser-Pro-Ser-Lys-Lys-Asp-Asp-Lys-Lys-Pro-Gly-Asp-(E-amino-cysteinyl carboxamide)-Lys-NH2] (Myristoyl-GSSKSPSKKDDKKPGDK(Cys)-NH2)", "values": [{"measurement": "solubility", "setting": "in dimethylsulfoxide, read-out: solubility in dimethylsulfoxide", "value": "≥ 10000", "unit": "µg/mL"}, {"measurement": "solubility", "setting": "in water, read-out: solubility in water", "value": "≥ 10000", "unit": "µg/mL"}]}
